# Experimental data taken from patent US20250163104A1, “MACROCYCLIC IMMUNOMODULATORS” (priority 2021, published 2025).
# Where a SMILES comes first, the peptide text is derived from it. Bridges are numbered along the chain shown (N, C = ends). [ ]: non-standard residue; d: D form. The star is where a group is joined. ξ: configuration not given here. Ala(morpholin-4-yl) = N[C@@H](CN1CCOCC1)C(=O)O; Phe(3-COOH) = N[C@@H](Cc1cccc(C(=O)O)c1)C(=O)O; Phe(4-COOH) = N[C@@H](Cc1ccc(C(=O)O)cc1)C(=O)O; Phe(3,5-F2) = N[C@@H](Cc1cc(F)cc(F)c1)C(=O)O; Bip = N[C@@H](Cc1ccc(-c2ccccc2)cc1)C(=O)O; Phe(3-Me) = Cc1cccc(C[C@H](N)C(=O)O)c1; 4Pal = N[C@@H](Cc1ccncc1)C(=O)O; Cha = N[C@@H](CC1CCCCC1)C(=O)O; Cit = NC(=O)NCCC[C@H](N)C(=O)O; Thr(3ξ) = CC(O)[C@H](N)C(=O)O; Carboxymethyl = O=C(O)C*; Orn = NCCC[C@H](N)C(=O)O; Dab = NCC[C@H](N)C(=O)O; Dap = NC[C@H](N)C(=O)O; Propargyl = C#CC*
# Target: T1, human PD-1 / PD-L1-Ig binding on Jurkat cell line over-expressing human PD-1 (Jurkat-PD-1) (Homo sapiens, UniProt Q15116)
# T1 construct: expressed in transfected cells; host or cells: Jurkat
# Test: Jurkat-PD-1 Cell Binding High-Content Screening Assay (CBA)
# Type: cell-based
# Conditions: Jurkat-PD-1 cells, PE-labeled PD-L1-Ig 20 nM final; read-out: Jurkat HPD1_PDL1 IC50
# Method in brief: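 Read-out: high-content imaging of PE-tagged PD-L1-Ig bound to Jurkat cells overexpressing human PD-1, after fixation with 4% paraformaldehyde and Hoechst 33342 nuclear staining. Ligand was used at 20 nM final for 1 hour, after a 2 h compound exposure at 37° C in serum-containing DMEM.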
# T1 sequence (Q15116 25-288): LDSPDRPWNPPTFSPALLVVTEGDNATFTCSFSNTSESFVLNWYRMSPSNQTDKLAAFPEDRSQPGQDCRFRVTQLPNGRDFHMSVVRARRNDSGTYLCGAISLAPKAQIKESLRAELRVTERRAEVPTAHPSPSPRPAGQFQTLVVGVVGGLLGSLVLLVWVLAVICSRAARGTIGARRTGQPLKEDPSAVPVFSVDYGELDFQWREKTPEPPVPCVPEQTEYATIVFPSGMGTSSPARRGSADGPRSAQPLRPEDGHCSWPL
row,Compound,IC50 [µM]
1,CC(C)C[C@@H]1NC(=O)[C@H](Cc2c[nH]c3ccccc23)NC(=O)[C@H](CC(=O)O)NC(=O)[C@H](Cc2ccc(O)cc2)NC(=O)[C@H](Cc2ccccc2)NC(=O)CSC[C@@H](C(=O)NCC(N)=O)NC(=O)[C@H]([C@@H](C)O)NC(=O)[C@H](C(C)C)NC(=O)[C@H](CC(C)C)NC(=O)[C@H](CC(N)=O)NC(=O)[C@@H](CC(C)C)NC(=O)[C@H](CCCN)NC(=O)[C@H](C(C)C)NC(=O)[C@H](Cc2ccc(-c3ccccc3)cc2)NC1=O [Compound 1064] ({CH2CO}-FYDWL[Bip]V[Orn][dL]NLVTCG-NH2; thioether N-14),0.0513
2,CC(C)C[C@H]1NC(=O)[C@H](CCCN)NC(=O)[C@H](CCC(=O)O)NC(=O)[C@H](Cc2ccc(-c3ccccc3)cc2)NC(=O)[C@H](C(C)C)NC(=O)[C@H](Cc2c[nH]c3ccccc23)NC(=O)[C@H](CC(=O)O)NC(=O)[C@H](Cc2ccc(OCC(=O)O)cc2)NC(=O)[C@H](Cc2ccc(OCC(=O)O)cc2)NC(=O)CSC[C@@H](C(=O)N[C@@H](C)C(N)=O)NC(=O)[C@H]([C@@H](C)O)NC(=O)[C@H](C(C)C)NC(=O)[C@H](Cc2ccccc2)NC(=O)[C@H](CCN)NC1=O [Compound 1668] ({CH2CO}-Y(Carboxymethyl)Y(Carboxymethyl)DWV[Bip]E[Orn][dL][Dab]FVTCA-NH2; thioether N-14),0.0487
3,C#CCOc1ccc(C[C@@H]2NC(=O)[C@H](Cc3ccc(-c4ccccc4)cc3)NC(=O)[C@H](Cc3ccc(C(=O)O)cc3)NC(=O)[C@H](Cc3cccc(C)c3)NC(=O)[C@H](CC(=O)O)NC(=O)[C@H](Cc3ccc(C(=O)O)cc3)NC(=O)[C@H]([C@@H](C)O)NC(=O)CSC[C@@H](C(=O)N[C@@H](CCN)C(N)=O)NC(=O)[C@H](CCC(=O)O)NC(=O)[C@H](C(C)C)NC(=O)[C@H](CC3CCCCC3)NC(=O)[C@H](CCN)NC(=O)[C@@H](CC(C)C)NC(=O)[C@H](CCCN)NC2=O)cc1 [Compound 1828] ({CH2CO}-T[Phe(4-COOH)]D[Phe(3-Me)][Phe(4-COOH)][Bip]Y(Propargyl)[Orn][dL][Dab][Cha]VEC[Dab]-NH2; thioether N-14),0.0069
4,CCC[C@@H]1NC(=O)[C@H](Cc2c[nH]c3ccccc23)NC(=O)[C@H](CC(=O)O)NC(=O)[C@H](Cc2ccc(OCC(=O)O)cc2)NC(=O)[C@H](CN)NC(=O)CSC[C@@H](C(=O)N[C@@H](C)C(N)=O)NC(=O)[C@H]([C@@H](C)O)NC(=O)[C@H](C(C)C)NC(=O)[C@H](CC2CCCCC2)NC(=O)[C@H](CCN)NC(=O)[C@@H](CC(C)C)NC(=O)[C@H](CCCN)NC(=O)[C@H](CCC(=O)O)NC(=O)[C@H](Cc2ccc(-c3ccccc3)cc2)NC1=O [Compound 1719],0.021
5,CC(C)C[C@@H]1NC(=O)[C@H](Cc2c[nH]c3ccccc23)NC(=O)[C@H](CC(=O)O)NC(=O)[C@H](Cc2ccc(OCC(=O)O)cc2)NC(=O)[C@H](Cc2ccc(OCC(=O)O)cc2)NC(=O)CSC[C@@H](C(=O)NCC(N)=O)NC(=O)[C@H](CO)NC(=O)[C@H](C(C)C)NC(=O)[C@H](CC2CCCCC2)NC(=O)[C@H](CCN)NC(=O)[C@@H](CC(C)C)NC(=O)[C@H](CCCN)NC(=O)[C@H](C(C)C)NC(=O)[C@H](Cc2ccc(-c3ccccc3)cc2)NC1=O [Compound 1404] ({CH2CO}-Y(Carboxymethyl)Y(Carboxymethyl)DWL[Bip]V[Orn][dL][Dab][Cha]VSCG-NH2; thioether N-14),0.0051
6,CC(C)C[C@H]1NC(=O)[C@H](CCCN)NC(=O)[C@H](C(C)C)NC(=O)[C@H](Cc2ccc(-c3ccccc3)cc2)NC(=O)[C@H](C(C)C)NC(=O)[C@H](Cc2c[nH]c3ccccc23)NC(=O)[C@H](CC(=O)O)NC(=O)[C@H](Cc2ccc(O)cc2)NC(=O)[C@H](CN)NC(=O)CSC[C@@H](C(=O)N[C@@H](C)C(N)=O)NC(=O)[C@H]([C@@H](C)O)NC(=O)[C@H](C(C)C)NC(=O)[C@H](CC2CCCCC2)NC(=O)[C@H](CCN)NC1=O [Compound 1172],0.0064
7,CC(C)C[C@H]1NC(=O)[C@H](CCCN)NC(=O)[C@H](CCC(=O)O)NC(=O)[C@H](Cc2ccc(-c3ccccc3)cc2)NC(=O)[C@H](C(C)C)NC(=O)[C@H](Cc2c[nH]c3ccccc23)NC(=O)[C@H](CC(=O)O)NC(=O)[C@H](Cc2ccc(OCC(=O)O)cc2)NC(=O)[C@H](CN)NC(=O)CSC[C@@H](C(=O)N[C@@H](C)C(N)=O)NC(=O)[C@H]([C@@H](C)O)NC(=O)[C@H](C(C)C)NC(=O)[C@H](Cc2ccc(O)cc2)NC(=O)[C@H](CCN)NC1=O [Compound 1686] ({CH2CO}-[Dap]Y(Carboxymethyl)DWV[Bip]E[Orn][dL][Dab]YVTCA-NH2; thioether N-14),0.215
8,CC(C)C[C@@H]1NC(=O)[C@H](Cc2c[nH]c3ccccc23)NC(=O)[C@H](CC(=O)O)NC(=O)[C@H](Cc2ccc(OCC(=O)O)cc2)NC(=O)[C@H](CN)NC(=O)CSC[C@@H](C(=O)NCC(N)=O)NC(=O)[C@H](CO)NC(=O)[C@H](C(C)C)NC(=O)[C@H](CC2CCCCC2)NC(=O)[C@H](CCN)NC(=O)[C@@H](CC(C)C)NC(=O)[C@H](CCCN)NC(=O)[C@H](C(C)C)NC(=O)[C@H](Cc2ccc(-c3ccccc3)cc2)NC1=O [Compound 1403] ({CH2CO}-[Dap]Y(Carboxymethyl)DWL[Bip]V[Orn][dL][Dab][Cha]VSCG-NH2; thioether N-14),0.0059

# Other lines, results leading:
row,IC50 [µM],Compound
1,0.0121,Cc1cccc(C[C@@H]2NC(=O)[C@H](CC(=O)O)NC(=O)[C@H](Cc3ccc(C(=O)O)cc3)NC(=O)[C@H](Cc3ccncc3)NC(=O)CSC[C@@H](C(=O)N[C@@H](CCN)C(N)=O)NC(=O)[C@H](CO)NC(=O)[C@H](C(C)C)NC(=O)[C@H](CC3CCCCC3)NC(=O)[C@H](CCN)NC(=O)[C@@H](CC(C)C)NC(=O)[C@H](CCCN)NC(=O)[C@H](Cc3ccc(OCC(=O)O)cc3)NC(=O)[C@H](Cc3ccc(-c4ccccc4)cc3)NC(=O)[C@H](Cc3ccc(OCC(=O)O)cc3)NC2=O)c1 [Compound 2307] ({CH2CO}-[4Pal][Phe(4-COOH)]D[Phe(3-Me)]Y(Carboxymethyl)[Bip]Y(Carboxymethyl)[Orn][dL][Dab][Cha]VSC[Dab]-NH2; thioether N-14)
2,0.0372,"CC(C)C[C@H]1NC(=O)[C@H](CCCN)NC(=O)[C@H](CCCNC(N)=O)NC(=O)[C@H](Cc2ccc(-c3ccccc3)cc2)NC(=O)[C@H](C(C)C)NC(=O)[C@H](Cc2c[nH]c3ccccc23)NC(=O)[C@H](CC(=O)O)NC(=O)[C@H](Cc2cc(F)cc(F)c2)NC(=O)[C@H](CN)NC(=O)CSC[C@@H](C(=O)N[C@@H](C)C(N)=O)NC(=O)[C@H]([C@@H](C)O)NC(=O)[C@H](C(C)C)NC(=O)[C@H](CC2CCCCC2)NC(=O)[C@H](CCN)NC1=O [Compound 2131] ({CH2CO}-[Dap][Phe(3,5-F2)]DWV[Bip][Cit][Orn][dL][Dab][Cha]VTCA-NH2; thioether N-14)"
3,0.0125,CC(C)C[C@H]1NC(=O)[C@H](CCCN)NC(=O)[C@H](C(C)C)NC(=O)[C@H](Cc2ccc(-c3ccccc3)cc2)NC(=O)[C@H](C(C)C)NC(=O)[C@H](Cc2c[nH]c3ccccc23)NC(=O)[C@H](CC(=O)O)NC(=O)[C@H](Cc2ccc(O)cc2)NC(=O)[C@H](C(C)O)NC(=O)CSC[C@@H](C(=O)N[C@@H](CC(N)=O)C(N)=O)NC(=O)[C@H](C(C)O)NC(=O)[C@H](C(C)C)NC(=O)[C@H](CC2CCCCC2)NC(=O)[C@H](CCN)NC1=O (stereo partly drawn) [Compound 2549] ({CH2CO}-[Thr(3ξ)]YDWV[Bip]V[Orn][dL][Dab][Cha]V[Thr(3ξ)]CN-NH2; thioether N-14)
4,0.0151,CC(C)C[C@@H]1NC(=O)[C@H](Cc2c[nH]c3ccccc23)NC(=O)[C@H](CC(=O)O)NC(=O)[C@H](Cc2cccc(C(=O)O)c2)NC(=O)[C@H](CN)NC(=O)CSC[C@@H](C(=O)NCC(N)=O)NC(=O)[C@H](CO)NC(=O)[C@H](C(C)C)NC(=O)[C@H](CC2CCCCC2)NC(=O)[C@H](CCN)NC(=O)[C@@H](CC(C)C)NC(=O)[C@H](CCCN)NC(=O)[C@H](C(C)C)NC(=O)[C@H](Cc2ccc(-c3ccccc3)cc2)NC1=O [Compound 2021] ({CH2CO}-[Dap][Phe(3-COOH)]DWL[Bip]V[Orn][dL][Dab][Cha]VSCG-NH2; thioether N-14)
5,0.0481,Cc1cccc(C[C@@H]2NC(=O)[C@H](CC(N)=O)NC(=O)[C@H](Cc3ccc(OCC(=O)O)cc3)NC(=O)[C@H](CN3CCOCC3)NC(=O)CSC[C@@H](C(=O)N[C@@H](CCN)C(N)=O)NC(=O)[C@H](CCCN)NC(=O)[C@H](C(C)C)NC(=O)[C@H](CC3CCCCC3)NC(=O)[C@H](CCN)NC(=O)[C@@H](CC(C)C)NC(=O)[C@H](CCCN)NC(=O)[C@H](CCCN)NC(=O)[C@H](Cc3ccc(-c4ccccc4)cc3)NC(=O)[C@H](Cc3ccc(C(=O)O)cc3)NC2=O)c1 [Example 2725] ({CH2CO}-[Ala(morpholin-4-yl)]Y(Carboxymethyl)N[Phe(3-Me)][Phe(4-COOH)][Bip][Orn][Orn][dL][Dab][Cha]V[Orn]C[Dab]-NH2; thioether N-14)
6,0.0136,Cc1cccc(C[C@@H]2NC(=O)[C@H](CC(=O)O)NC(=O)[C@H](Cc3ccc(OCC(=O)O)cc3)NC(=O)[C@H](CCN)NC(=O)CSC[C@@H](C(=O)N[C@@H](CCN)C(N)=O)NC(=O)[C@H](Cc3cnc[nH]3)NC(=O)[C@H](C(C)C)NC(=O)[C@H](CC3CCCCC3)NC(=O)[C@H](CCN)NC(=O)[C@@H](CC(C)C)NC(=O)[C@H](CCCN)NC(=O)[C@H](Cc3ccc(OCC(=O)O)cc3)NC(=O)[C@H](Cc3ccc(-c4ccccc4)cc3)NC(=O)[C@H](C(C)C)NC2=O)c1 [Compound 2644] ({CH2CO}-[Dab]Y(Carboxymethyl)D[Phe(3-Me)]V[Bip]Y(Carboxymethyl)[Orn][dL][Dab][Cha]VHC[Dab]-NH2; thioether N-14)
7,0.0527,CC(C)C[C@H]1NC(=O)[C@H](CCCN)NC(=O)[C@H](CCC(=O)O)NC(=O)[C@H](Cc2ccc(-c3ccccc3)cc2)NC(=O)[C@H](C(C)C)NC(=O)[C@H](Cc2c[nH]c3ccccc23)NC(=O)[C@H](CC(=O)O)NC(=O)[C@H](Cc2ccc3ncccc3c2)NC(=O)[C@H](Cc2ccc(OCC(=O)O)cc2)NC(=O)CSC[C@@H](C(=O)N[C@@H](C)C(N)=O)NC(=O)[C@H]([C@@H](C)O)NC(=O)[C@H](C(C)C)NC(=O)[C@H](CC2CCCCC2)NC(=O)[C@H](CCN)NC1=O [Compound 2178]
